From PMC6874530, “Structural analysis identifies an escape route from the adverse lipogenic effects of liver X receptor ligands” (Communications Biology, 2019)
Read-outs that look alike come from different tables or passages of the source.

Legend:
Abca1 mRNA in intestine = assay: intestinal Abca1 mRNA induction in C57BL/6 mice (Emax model); assay type: in vivo, mouse; conditions: for ED50: Mus musculus
Experimental: All procedures involving animals were conducted in accordance with accepted standards of good animal practice and approved by the respective local animal ethics committees (Gothenburg region Local Ethics Review Committee on Animal experiments and University of Virginia Animal Care and Use Committee). Male C57BL/6JOlaHsd mice were retrieved from Harlan Laboratories (Horst, The Netherlands) around 7 weeks of age. In the studies with BMS-852907, male 8-week C57BL/6J mice (Jackson Laboratories) were used. Mice were given ad libitum access to water and standard rodent chow during the studies.
Solid compounds were solubilized in PEG400/Ethanol/Solutol/Water solution (36.3/9.1/4.6/50%). Compounds were given daily by oral gavage, 5 ml kg^−1, at doses ranging from 0.1 to 100 μmol kg^−1 of body weight for 4 days. Animals were terminated 3 h after the last dose.
(§1) At termination, the whole-blood volume was drawn from isoflurane-anesthetized mice via an incision in the carotid artery into EDTA blood tubes (S-Monovette®, EDTA KE/1.3 mL, Sarstedt, Nümbrecht, Germany or BD Microtainers®, Benton, Dickinson and Company, Franklin Lakes, New Jersey, USA). Blood samples were placed on ice and centrifuged within an hour (15 min, 2500 × g, 4 °C or 5 min, 16000 × g, 4 °C). The plasma was then dispensed in separate tubes and kept at −80 °C for later analysis of compound concentration and TG levels. For the analysis of intestinal Abca1 transcript levels, a 3–5-mm long segment of the duodenum was excised and cleared from any gut contents. Tissues were instantly snap frozen in liquid nitrogen and stored at −80 °C.
Snap-frozen intestinal tissues were quickly disrupted in QIAzol® (Qiagen, Hilden, Germany) or PureZOL™ (Bio-Rad Laboratories, Hercules, California, USA) by using a bead tissue homogenizer. Lysates were mixed with chloroform and centrifuged at 6000 × g for 15 min at 4 °C. Total RNA was purified from the upper aqueous phase on the ABI PRISM™ 6100 Nucleic Acid PrepStation (Applied Biosystems, Foster City, USA) or by using the RNeasy kit® (QIAGEN Sciences Inc., Germantown, Maryland, USA) including on-column DNase treatment by using the respective manufacturer’s protocol and reagents. Concentration of total RNA was determined on a NanoDrop™ ND-100 Spectrophotometer (Saveen Werner, Lögstrup, Sweden). The RNA templates were transferred to cDNA by reverse transcription by using the High-Capacity cDNA Reverse Transcription Kit (Applied Biosystems, Foster City, USA) according to the manufacturer’s protocol. Mouse ATP-binding cassette subfamily A member 1 (Abca1) was analyzed by using the forward primer 5′-[…]-3′, reverse primer 5′-[…]-3′, and the dual-labeled probe 5′-6FAM-[…]-TAMRA-3′. Mouse ribosomal protein large P0 (Rplp0, 36b4) was analyzed by using the forward primer 5′-[…]-3′, reverse primer 5′-[…]-3′, and the FAM-labeled probe 5′-[…]-TAMRA-3′. In the study with BMS-852907, RT-qPCR reactions were carried out in separate triplicate wells for Abca1 and Rplp0, respectively, by using 20 ng of cDNA template, 385 nM of the above-mentioned primers, and iQ™ SYBR Green Supermix (Bio-Rad, Hercules, California, USA) on a Bio-Rad MyiQ instrument (Bio-Rad, Hercules, California, USA). In the other studies, 400 nM Abca1 forward and reverse primers, 200 nM Abca1 probe, 200 nM Rplp0 forward and reverse primers, and 100 nM Rplp0 probe were mixed with 15 ng of cDNA template and TaqMan™ Gene Expression Master Mix (Applied Biosystems, Foster City, USA). The RT-qPCR reactions were performed on a 7500 Real-time PCR system (Applied Biosystems, Foster City, USA). Cycle threshold values (Ct) were retrieved from the instrument software. Relative changes in mRNA expression were calculated by using the comparative cycle method (2^−ΔΔCt). […]

LXRα = molecular target: T1, LXRα (Homo sapiens, UniProt Q13133); assay: Gal4 one hybrid reporter gene (transactivation) assay in U2OS cells, LXRα; assay type: cell-based; conditions: value (SD, n); for EC50: U2OS cells, Gal4-LXRα LBD, read-out: LXRα transactivation pEC50 (converted); for Emax: U2OS, 40 h, maximal activation compared with a reference full agonist, read-out: LXRα transactivation Agonist efficacy, %
T1 construct: expression vectors pSG5-Gal4-LXRα LBD or pSG5-Gal4-LXRβ LBD; expressed in transfected cells; host or cells: U2OS osteosarcoma cells
T1 sequence (Q13133 209-447 limits assumed): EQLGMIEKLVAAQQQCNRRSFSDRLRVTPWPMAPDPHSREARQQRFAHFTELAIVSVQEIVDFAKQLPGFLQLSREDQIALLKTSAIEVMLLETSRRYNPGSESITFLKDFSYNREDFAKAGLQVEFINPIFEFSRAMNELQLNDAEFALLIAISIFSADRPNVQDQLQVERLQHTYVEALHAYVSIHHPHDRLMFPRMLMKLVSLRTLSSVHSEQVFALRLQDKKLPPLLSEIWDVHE
Experimental: (§2) Transactivation assays were performed in U2OS osteosarcoma cells (ATCC, USA). […] Ligands were added at ten different concentrations 2 h post transfection and the luciferase activity was measured after 40 h.

LXRβ = molecular target: T2, LXRβ (Homo sapiens, UniProt P55055); assay: Gal4 one hybrid reporter gene (transactivation) assay in U2OS cells, LXRβ; assay type: cell-based; conditions: for Emax: U2OS, 40 h, maximal activation compared with a reference full agonist, read-out: LXRβ transactivation Agonist efficacy, %; for Potency-based LXRβ selectivity over LXRα: Gal4 reporter gene assays
T2 construct: expression vectors pSG5-Gal4-LXRα LBD or pSG5-Gal4-LXRβ LBD; expressed in transfected cells; host or cells: U2OS osteosarcoma cells
T2 sequence (P55055 222-460 limits assumed): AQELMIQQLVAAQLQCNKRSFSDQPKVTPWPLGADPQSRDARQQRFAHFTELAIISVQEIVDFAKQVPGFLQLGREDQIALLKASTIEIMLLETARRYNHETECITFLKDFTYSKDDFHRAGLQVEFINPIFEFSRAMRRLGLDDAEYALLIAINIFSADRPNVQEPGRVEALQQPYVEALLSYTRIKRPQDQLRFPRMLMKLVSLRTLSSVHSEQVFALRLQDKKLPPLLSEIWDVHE
Experimental: as §2

plasma triglycerides = assay: plasma TG induction in C57BL/6 mice vs plasma compound concentration (log-linear model); assay type: in vivo, mouse; conditions: for TG induction in plasma m (scaling factor) / TG induction in plasma C2, drug concentration corresponding to a twofold increase in TG levels: (% RSE); for TG induction in plasma Attributed class: mouse, in vivo
Experimental: Male C57BL/6JOlaHsd mice were retrieved from Harlan Laboratories (Horst, The Netherlands) around 7 weeks of age. […] Mice were given ad libitum access to water and standard rodent chow during the studies.
Compounds were given daily by oral gavage, 5 ml kg^−1, at doses ranging from 0.1 to 100 μmol kg^−1 of body weight for 4 days. Animals were terminated 3 h after the last dose.
as §1
Plasma triglyceride levels were analyzed by using the Triglycerides/Glycerol Blanked reagent kit (Roche Diagnostics GMBH, Mannheim, Germany). Samples were measured on an ABX Pentra 400 instrument (Horiba Medical, Irvine, California, USA) or Cobas Mira plus instrument (Roche Diagnostics Corporation, Indianapolis, USA). […] Absorbance was measured by using a Tecan Infinite M200 plate reader (Tecan Austria GmbH, Salzburg, Austria).
About 25 µL of plasma was precipitated with 150 µL of cold acetonitrile containing 0.2% formic acid. […] Sample analysis was performed by using a reversed-phase high-pressure liquid chromatography system coupled to a Quattro Ultima triple-quadrupole mass spectrometer (Waters, UK). A rapid 2-min 4–90% (vol/vol) acetonitrile (containing 0.2% formic acid) gradient was used for chromatographic separation.
To rank the compounds, the drug concentration (C2) needed to generate a twofold increase in plasma TG was estimated by rearranging Eq. (2):3 C2=exp^2fold−BL−1/m^1/γ

[1] = po, read-out: Abca1 mRNA induction in intestine Attributed class
[2] = oral gavage daily for 4 days, C57BL/6 mice, (% RSE), read-out: Abca1 mRNA induction in intestine ED50
[3] = U2OS cells, Gal4-LXRβ LBD, value (SD, n), read-out: LXRβ transactivation pEC50 (converted)

Compound	class of intestinal Abca1 induction (Abca1 mRNA in intestine)	ED50 (Abca1 mRNA in intestine; [1]) [µmol/kg]	ED50 (Abca1 mRNA in intestine; [2]) [µmol/kg]	EC50 (LXRα) [nM]	Emax (LXRα) [%]	EC50 (LXRβ; [3]) [nM]	Emax (LXRβ; value (SD, n)) [%]	TG induction in plasma m (scaling factor) (plasma triglycerides)	TG induction in plasma Attributed class (plasma triglycerides)	TG induction in plasma C2, drug concentration corresponding to a twofold increase in TG levels (plasma triglycerides)	Potency-based LXRβ selectivity over LXRα (LXRβ) [fold]	EC50 (LXRβ; read-out: potency in LXRβ-based assay) [nM]
CN(C)C(=O)c1cccc(CCCCNC2=C(c3ccccc3)S(=O)(=O)N(C(C)(C)C)C2=O)c1 [AZ1]	high ABCA1	≤ 11.3	< 30	110	102	30.9	76	3.88 (30)	Lipogenic	0.214 (58) μM		
CC(CCCc1cccc(S(N)(=O)=O)n1)NC1=C(c2ccccc2)S(=O)(=O)N(C(C)C)C1=O (stereo not drawn) [AZ2]		≤ 11.3	9.64	77.6	111	8.71	97.3	9.28 (63)		0.041 (120) μM	11	
CC(C)N1C(=O)C(NCCCCc2cccc(S(N)(=O)=O)n2)=C(c2ccccc2)S1(=O)=O [AZ3]		≤ 11.3	1.49	813	142	75.9	94.3	0.897 (20)		3.42 (38) μM	9	< 100
CC(C)(C)N1C(=O)C(NC2CCN(c3ncc(CC(=O)O)cc3Cl)CC2)=C(c2ccccc2)S1(=O)=O [AZ4]		≤ 11.3	5.65	427	103	148	110	1.47 (28)		1.35 (54) μM		
CN(C)C(=O)c1cnc(N2CC[C@@H](CNC3=C(c4ccccc4)S(=O)(=O)N(C(C)(C)C)C3=O)C2)c(Cl)c1 [AZ5]	low ABCA1 inducers	> 11.3	17.2	1070	60.5	97.7	66.5				11	
CC(C)N1C(=O)C(NC2CCN(c3ncc(CC(=O)O)cc3Cl)CC2)=C(c2ccccc2)S1(=O)=O [AZ6]	high ABCA1 inducers	≤ 11.3	11.3	1230	87.8	617	95.3		Non-lipogenic			
CC(C)(C)N1C(=O)C(Cc2ccccc2)=C(NC2CCN(c3ncc(CC(=O)O)cc3Cl)CC2)C1=O [AZ7]	high ABCA1	≤ 11.3	< 30	1100	85.3	537	104		Non-lipogenic			
O=C1C(Cc2ccccc2)=C(NCCCCc2ccccc2)C(=O)N1Cc1ccccc1 [AZ8]	low ABCA1 inducers	> 11.3	341	1740	91.5	1290	102		Non-lipogenic			
